Test results published in US20180201592A1, “2-AMINO-1,3,4-THIADIAZINE AND 2-AMINO-1,3,4-OXADIAZINE BASED ANTIFUNGAL AGENTS” (F2G Limited, priority 2015, published 2018).
In brackets after ≈: the same amount, converted by molar mass. Where two headings read alike, the source gives them in different places.

Legend:
[1] = system: Aspergillus fumigatus; experiment: Minimum inhibitory concentration, YAG medium; assay type: cell-based; conditions: banded MIC grade
Method in brief: (§1)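 Growth was read as optical density at 485 nm after 24 hrs at 35° C, and the MIC taken as the lowest drug concentration cutting growth by >70% relative to drug-free wells. Plates held doubling dilutions (50-0.05 mg/L) with 1-2×10^4 cfu/mL spores in YAG medium.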

[2] = system: A. fumigatus 210; experiment: Minimum inhibitory concentration, YAG medium; assay type: cell-based, Aspergillus fumigatus; conditions: banded MIC grade
Method in brief: as §1

[3] = system: A. terreus 49; experiment: Minimum inhibitory concentration, YAG medium; assay type: cell-based, Aspergillus terreus; conditions: banded MIC grade
Method in brief: (§2)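 Compound in DMSO (5 mg/mL stock), diluted in water and doubling-diluted; Aspergillus spores grown in YAG medium 24 hrs at 35° C. Growth read as optical density at 485 nm; MIC given in mg/L.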

[4] = system: Aspergillus flavus; experiment: Minimum inhibitory concentration, YAG medium; assay type: cell-based; conditions: banded MIC grade
Method in brief: as §2

[5] = system: Aspergillus niger; experiment: Minimum inhibitory concentration, YAG medium; assay type: cell-based; conditions: banded MIC grade
Method in brief: as §2

[6] = system: Aspergillus terreus; experiment: Minimum inhibitory concentration, YAG medium; assay type: cell-based; conditions: banded MIC grade
Method in brief: as §2

[7] = system: C. albicans; experiment: Minimum inhibitory concentration, RPMI medium; assay type: cell-based; conditions: banded MIC grade; for MIC: Candida albicans, RPMI media
Method in brief: (§3)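 Broth microdilution in RPMI 1640 medium using doubling dilutions in water prepared from a 5 mg/mL DMSO stock. Plates incubated 24-48 hrs at 35° C; growth read as optical density at 485 nm.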

[8] = system: C. parapsilosis; experiment: Minimum inhibitory concentration, RPMI medium; assay type: cell-based; conditions: banded MIC grade; for MIC: Lodderomyces parapsilosis, RPMI media
Method in brief: as §3

[9] = system: C. tropicalis; experiment: Minimum inhibitory concentration, RPMI medium; assay type: cell-based; conditions: banded MIC grade
Method in brief: as §3

## NC1=NN=C(CCOc2ccc(-c3ccccc3)cc2)CS1
[1]
  MIC grade, A. FUMIGATUS, YAG media: 1 (1: ≥5 mg/L)
[2]
  MIC grade, A. FUMIGATUS 210, YAG media: 1 (1: ≥5 mg/L)
[3]
  MIC grade, A. TERREUS 49, YAG media: 2 (2: 1-5 mg/L)
[4]
  MIC grade, A. FLAVUS, YAG media: 2 (2: 1-5 mg/L)
[5]
  MIC grade, A. NIGER, YAG media: 2 (2: 1-5 mg/L)
[6]
  MIC grade, A. TERREUS, YAG media: 2 (2: 1-5 mg/L)
[7]
  MIC grade, C. ALBICANS, RPMI media: 1 (1: ≥20 mg/L)
[8]
  MIC grade, C. PARAPSILOSIS, RPMI media: 1 (1: ≥20 mg/L)
[9]
  MIC grade, C. TROPICALIS, RPMI media: 1 (1: ≥20 mg/L)

## CN1N=C(N)SC=C1c1ccc(C#N)cc1 [4-(2-amino-4-methyl-1,3,4-thiadiazin-5-yl)benzonitrile]
[1]; Aspergillus fumigatus, YAG media
  MIC: 0.2 to 1 µg/mL (≈ 0.868 to 4.34 µM)
[2]; Aspergillus fumigatus, 210, YAG media
  MIC: < 0.2 µg/mL
[3]; Aspergillus terreus, 49, YAG media
  MIC: < 0.2 µg/mL
[4]; Aspergillus flavus, YAG media
  MIC: < 0.2 µg/mL
[5]; Aspergillus niger, YAG media
  MIC: < 0.2 µg/mL
[6]; Aspergillus terreus, YAG media
  MIC: < 0.2 µg/mL
[7]; read-out: MIC grade C. ALBICANS
  MIC: < 1 µg/mL
[7]; read-out: MIC grade, C. ALBICANS, RPMI media
  MIC: 1 to 5 µg/mL (≈ 4.34 to 21.7 µM)
[8]; read-out: MIC grade C. PARAPSILOSIS
  MIC: 1 to 5 µg/mL (≈ 4.34 to 21.7 µM)
[8]; read-out: MIC grade, C. PARAPSILOSIS, RPMI media
  MIC: 1 to 5 µg/mL (≈ 4.34 to 21.7 µM)
[9]; Candida tropicalis, RPMI media
  MIC: 5 to 20 µg/mL (≈ 21.7 to 86.8 µM)

## Cc1ccc(COCCC2=NN=C(N)SC2)cc1
[1]
  MIC grade, A. FUMIGATUS, YAG media: 4 (4: <0.2 mg/L)
[2]
  MIC grade, A. FUMIGATUS 210, YAG media: 4 (4: <0.2 mg/L)
[3]
  MIC grade, A. TERREUS 49, YAG media: 4 (4: <0.2 mg/L)
[4]
  MIC grade, A. FLAVUS, YAG media: 3 (3: 0.2-1 mg/L)
[5]
  MIC grade, A. NIGER, YAG media: 4 (4: <0.2 mg/L)
[6]
  MIC grade, A. TERREUS, YAG media: 4 (4: <0.2 mg/L)
[7]
  MIC grade, C. ALBICANS, RPMI media: 3 (3: 1-5 mg/L)
[8]
  MIC grade, C. PARAPSILOSIS, RPMI media: 3 (3: 1-5 mg/L)
[9]
  MIC grade, C. TROPICALIS, RPMI media: 2 (2: 5-20 mg/L)

## NC1=NN=C(CCOCc2ccc(-c3ccccc3)cc2)CS1
[1]
  MIC grade, A. FUMIGATUS, YAG media: 1 (1: ≥5 mg/L)
[2]
  MIC grade, A. FUMIGATUS 210, YAG media: 1 (1: ≥5 mg/L)
[3]
  MIC grade, A. TERREUS 49, YAG media: 3 (3: 0.2-1 mg/L)
[4]
  MIC grade, A. FLAVUS, YAG media: 3 (3: 0.2-1 mg/L)
[5]
  MIC grade, A. NIGER, YAG media: 3 (3: 0.2-1 mg/L)
[6]
  MIC grade, A. TERREUS, YAG media: 3 (3: 0.2-1 mg/L)
[7]
  MIC grade, C. ALBICANS, RPMI media: 1 (1: ≥20 mg/L)
[8]
  MIC grade, C. PARAPSILOSIS, RPMI media: 2 (2: 5-20 mg/L)
[9]
  MIC grade, C. TROPICALIS, RPMI media: 2 (2: 5-20 mg/L)

## NC1=NN=C(CCOCc2ccccc2)CS1
[1]
  MIC grade, A. FUMIGATUS, YAG media: 3 (3: 0.2-1 mg/L)
[2]
  MIC grade, A. FUMIGATUS 210, YAG media: 2 (2: 1-5 mg/L)
[3]
  MIC grade, A. TERREUS 49, YAG media: 3 (3: 0.2-1 mg/L)
[4]
  MIC grade, A. FLAVUS, YAG media: 3 (3: 0.2-1 mg/L)
[5]
  MIC grade, A. NIGER, YAG media: 3 (3: 0.2-1 mg/L)
[6]
  MIC grade, A. TERREUS, YAG media: 3 (3: 0.2-1 mg/L)
[7]
  MIC grade, C. ALBICANS, RPMI media: 1 (1: ≥20 mg/L)
[8]
  MIC grade, C. PARAPSILOSIS, RPMI media: 3 (3: 1-5 mg/L)
[9]
  MIC grade, C. TROPICALIS, RPMI media: 1 (1: ≥20 mg/L)

## NC1=NN=C(CCCCCN2C(=O)c3ccccc3C2=O)CS1
[1]
  MIC grade, A. FUMIGATUS, YAG media: 4 (4: <0.2 mg/L)
[2]
  MIC grade, A. FUMIGATUS 210, YAG media: 4 (4: <0.2 mg/L)
[3]
  MIC grade, A. TERREUS 49, YAG media: 4 (4: <0.2 mg/L)
[4]
  MIC grade, A. FLAVUS, YAG media: 4 (4: <0.2 mg/L)
[5]
  MIC grade, A. NIGER, YAG media: 4 (4: <0.2 mg/L)
[6]
  MIC grade, A. TERREUS, YAG media: 4 (4: <0.2 mg/L)
[7]
  MIC grade, C. ALBICANS, RPMI media: 1 (1: ≥20 mg/L)
[8]
  MIC grade, C. PARAPSILOSIS, RPMI media: 3 (3: 1-5 mg/L)
[9]
  MIC grade, C. TROPICALIS, RPMI media: 1 (1: ≥20 mg/L)

## COc1cccc(C2=NN=C(N)SC2)c1
[1]
  MIC grade, A. FUMIGATUS, YAG media: 1 (1: ≥5 mg/L)
[2]
  MIC grade, A. FUMIGATUS 210, YAG media: 1 (1: ≥5 mg/L)
[3]
  MIC grade, A. TERREUS 49, YAG media: 1 (1: ≥5 mg/L)
[4]
  MIC grade, A. FLAVUS, YAG media: 1 (1: ≥5 mg/L)
[5]
  MIC grade, A. NIGER, YAG media: 1 (1: ≥5 mg/L)
[6]
  MIC grade, A. TERREUS, YAG media: 1 (1: ≥5 mg/L)
[7]
  MIC grade, C. ALBICANS, RPMI media: 1 (1: ≥20 mg/L)
[8]
  MIC grade, C. PARAPSILOSIS, RPMI media: 1 (1: ≥20 mg/L)
[9]
  MIC grade, C. TROPICALIS, RPMI media: 1 (1: ≥20 mg/L)
